“And” between values parts separate entries of the source, which are not always exact repeats. Identical values can stand only once. Toxic doses and inconclusive results are not listed. How the source made its calls: active means survival T/C of 150% or more; inactive means T/C below 125% in these data.
System: P388 leukemia ip, CD2F1 mice, survival T/C
Assay: NCI In Vivo Anticancer Drug Screen. Data for tumor model P388 Leukemia (intraperitoneal) in CD2F1 (CDF1) mice
Settings: endpoint: median survival time, higher = longer survival
How it was run: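 Mice carrying the transplanted tumor received test compound or vehicle. Survival was recorded in each group, and the value is the treated-group measurement divided by that of the vehicle-treated control group.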

[1] = dose: 60.0 mg/kg/injection, schedule: Q01DX005 (ip), vehicle: saline with Tween-80
[2] = dose: 120.0 mg/kg/injection, schedule: Q01DX005 (ip), vehicle: saline with Tween-80
[3] = dose: 240.0 mg/kg/injection, schedule: Q01DX005 (ip), vehicle: saline with Tween-80
[4] = dose: 25.0 mg/kg/injection, schedule: Q01DX009 (ip), vehicle: saline
[5] = dose: 50.0 mg/kg/injection, schedule: Q01DX009 (ip), vehicle: saline
[6] = dose: 60.0 mg/kg/injection, schedule: Q01DX005 (ip), vehicle: Klucel (hydroxypropylcellulose) (HPC)
[7] = dose: 120.0 mg/kg/injection, schedule: Q01DX005 (ip), vehicle: Klucel (hydroxypropylcellulose) (HPC)
[8] = dose: 240.0 mg/kg/injection, schedule: Q01DX005 (ip), vehicle: Klucel (hydroxypropylcellulose) (HPC)
[9] = dose: 12.5 mg/kg/injection, schedule: Q01DX009 (ip), vehicle: saline with Tween-80
[10] = dose: 25.0 mg/kg/injection, schedule: Q01DX009 (ip), vehicle: saline with Tween-80
[11] = dose: 50.0 mg/kg/injection, schedule: Q01DX009 (ip), vehicle: saline with Tween-80
[12] = dose: 100.0 mg/kg/injection, schedule: Q01DX009 (ip), vehicle: saline with Tween-80
[13] = dose: 200.0 mg/kg/injection, schedule: Q01DX009 (ip), vehicle: saline with Tween-80
[14] = dose: 100.0 mg/kg/injection, schedule: Q01DX009 (ip), vehicle: saline
[15] = dose: 200.0 mg/kg/injection, schedule: Q01DX009 (ip), vehicle: saline

Measured: T/C

CC(C)c1c(C[N+](C)([O-])C(C)Cc2ccccc2)n(C)n(-c2ccccc2)c1=O (centres undefined)
inactive: [1] 106 % of control | [2] 102 % of control | [3] 100 % of control

CCCCC(CC)C[N+]1(C)CCOCC1 (centres undefined)
inactive: dose: 12.5 mg/kg/injection, schedule: Q01DX009 (ip), vehicle: saline 100 % of control | [4] 100 % of control | [5] 94 % of control

CCOC(=O)Cn1cc([N+](=O)[O-])sc1=NC(=O)c1ccco1
inactive: dose: 100.0 mg/kg/injection, schedule: Q01DX001 (ip), vehicle: Klucel (hydroxypropylcellulose) (HPC) 90 % of control | dose: 200.0 mg/kg/injection, schedule: Q01DX001 (ip), vehicle: Klucel (hydroxypropylcellulose) (HPC) 98 % of control | dose: 400.0 mg/kg/injection, schedule: Q01DX001 (ip), vehicle: Klucel (hydroxypropylcellulose) (HPC) 97 % of control

[N-]=[N+]=NCC1OC(n2cnc3c(=O)[nH]c(N)nc32)C(O)C1O (centres undefined)
inactive: [6] 107 % of control | [7] 107 % of control | [8] 106 % of control

CN(C)C1CS(=O)(=O)C1c1ccccc1 (centres undefined)
inactive: [9] 100 % of control and 110 % of control | [10] 110 % of control and 95 % of control | [11] 112 % of control and 95 % of control | [12] 102 % of control and 103 % of control and 97 % of control | [13] 102 % of control

Fc1cccc(Cl)c1CSc1n[nH]c(C(F)(F)F)n1
inactive: [1] 102 % of control | [2] 100 % of control | [3] 111 % of control

Cc1ccc(NC(=O)COc2ccc(Cl)cc2Cl)c(C)c1
inactive: dose: 100.0 mg/kg/injection, schedule: Q04DX003 (ip), vehicle: saline with Tween-80 104 % of control | dose: 200.0 mg/kg/injection, schedule: Q04DX003 (ip), vehicle: saline with Tween-80 95 % of control | dose: 400.0 mg/kg/injection, schedule: Q04DX003 (ip), vehicle: saline with Tween-80 90 % of control

O=S(=O)(O)CCCCS(=O)(=O)O
inactive: [5] 99 % of control | [14] 108 % of control | [15] 110 % of control

CSC(=S)NN=C1CCCC1
inactive: [9] 101 % of control | [10] 101 % of control

N=[N+]=NC1C(O)C(CO)OC1n1cnc2c(N)ncnc21 (centres undefined)
inactive: dose: 5.0 mg/kg/injection, schedule: Q03HX016 (ip), vehicle: Klucel (hydroxypropylcellulose) (HPC) 118 % of control | dose: 10.0 mg/kg/injection, schedule: Q03HX016 (ip), vehicle: Klucel (hydroxypropylcellulose) (HPC) 110 % of control | dose: 160.0 mg/kg/injection, schedule: Q03HX016 (ip), vehicle: Klucel (hydroxypropylcellulose) (HPC) 64 % of control
active: dose: 80.0 mg/kg/injection, schedule: Q03HX016 (ip), vehicle: Klucel (hydroxypropylcellulose) (HPC) 153 % of control

Nc1ccc(C(=O)NO)cc1
inactive: dose: 25.0 mg/kg/injection, schedule: Q01DX009 (ip), vehicle: suspension in saline 99 % of control | dose: 50.0 mg/kg/injection, schedule: Q01DX009 (ip), vehicle: suspension in saline 99 % of control | dose: 100.0 mg/kg/injection, schedule: Q01DX009 (ip), vehicle: suspension in saline 96 % of control | dose: 200.0 mg/kg/injection, schedule: Q01DX009 (ip), vehicle: suspension in saline 109 % of control

COC1=CC(=O)C(c2cc(O)c(OC)cc2O)=CC1=O
inactive: dose: 12.0 mg/kg/injection, schedule: Q01DX005 (ip), vehicle: saline with Tween-80 114 % of control | dose: 25.0 mg/kg/injection, schedule: Q01DX005 (ip), vehicle: saline with Tween-80 108 % of control | dose: 50.0 mg/kg/injection, schedule: Q01DX005 (ip), vehicle: saline with Tween-80 99 % of control

Cn1cnc([N+](=O)[O-])c1Sc1ccncn1
inactive: [4] 101 % of control and 105 % of control | [5] 99 % of control and 103 % of control and 114 % of control | [14] 103 % of control and 118 % of control | [15] 112 % of control and 116 % of control

CCC1(O)CC2CN(CCc3c([nH]c4ccccc34)C(C(=O)OC)(c3cc4c(cc3OC)N(C=O)C3C(O)(C(=O)OC)CC5(CC)C=CCN6CCC43C65)C2)C1 (centres undefined)
active: dose: 1.0 mg/kg/injection, schedule: Q01DX001 (ip), vehicle: saline 155 % of control and 160 % of control | dose: 2.0 mg/kg/injection, schedule: Q01DX001 (ip), vehicle: saline 158 % of control and 160 % of control | dose: 4.0 mg/kg/injection, schedule: Q01DX001 (ip), vehicle: saline 180 % of control and 185 % of control | dose: 8.0 mg/kg/injection, schedule: Q01DX001 (ip), vehicle: saline 205 % of control and 220 % of control | dose: 16.0 mg/kg/injection, schedule: Q01DX001 (ip), vehicle: saline 255 % of control

COc1ccc(C2NC(=S)NC(C)=C2C(N)=O)cc1 (centres undefined)
inactive: [6] 101 % of control | [7] 95 % of control | [8] 96 % of control

O=C1OCC(c2ccno2)=C1O
inactive: [6] 100 % of control | [7] 100 % of control | [8] 104 % of control

ONC(=Nc1ccc2ccccc2c1)C(=Nc1ccc2ccccc2c1)NO
inactive: dose: 50.0 mg/kg/injection, schedule: Q01DX005 (ip), vehicle: Klucel (hydroxypropylcellulose) (HPC) 95 % of control | dose: 100.0 mg/kg/injection, schedule: Q01DX005 (ip), vehicle: Klucel (hydroxypropylcellulose) (HPC) 90 % of control | dose: 200.0 mg/kg/injection, schedule: Q01DX005 (ip), vehicle: Klucel (hydroxypropylcellulose) (HPC) 94 % of control

O=C(Nc1ccccc1)Nc1ccccc1C(=O)O
inactive: dose: 50.0 mg/kg/injection, schedule: Q04DX003 (ip), vehicle: Klucel (hydroxypropylcellulose) (HPC) 100 % of control | dose: 100.0 mg/kg/injection, schedule: Q04DX003 (ip), vehicle: Klucel (hydroxypropylcellulose) (HPC) 107 % of control | dose: 200.0 mg/kg/injection, schedule: Q04DX003 (ip), vehicle: Klucel (hydroxypropylcellulose) (HPC) 109 % of control | dose: 400.0 mg/kg/injection, schedule: Q04DX003 (ip), vehicle: Klucel (hydroxypropylcellulose) (HPC) 93 % of control

COC(=O)CCC(=O)Nc1ccccc1C(F)(F)F
inactive: [1] 102 % of control | [2] 108 % of control | [3] 107 % of control

COC1/C=C\OC2(C)Oc3c(C)c(O)c4c(O)c(c5c(c4c3C2=O)NC2(CCN(Cc3ccccc3)CC2)N=5)=NC(=O)/C(C)=C\C=C\C(C)C(O)C(C)C(O)C(C)C(OC(C)=O)C1C (centres undefined)
inactive: dose: 25.0 mg/kg/injection, schedule: Q01DX009 (ip), vehicle: Klucel (hydroxypropylcellulose) (HPC) 102 % of control | dose: 50.0 mg/kg/injection, schedule: Q01DX009 (ip), vehicle: Klucel (hydroxypropylcellulose) (HPC) 107 % of control | dose: 100.0 mg/kg/injection, schedule: Q01DX009 (ip), vehicle: Klucel (hydroxypropylcellulose) (HPC) 111 % of control | dose: 200.0 mg/kg/injection, schedule: Q01DX009 (ip), vehicle: Klucel (hydroxypropylcellulose) (HPC) 103 % of control

Sc1ccccc1N=Cc1ccc(C=Nc2ccccc2S)cc1
inactive: [5] 98 % of control | [14] 99 % of control | [15] 97 % of control

COc1ccc(-n2c(=O)[nH]c3ccccc3c2=O)cc1
inactive: [11] 108 % of control | [12] 100 % of control | [13] 104 % of control

CCC1CC(C)C(O)/C=C/C=C/CC(C)OC(=O)CC(O)C(OC)C1OC1CC(C)(O)C(O)C(C)O1 (centres undefined)
inactive: dose: 10.5 mg/kg/injection, schedule: Q01DX005 (ip), vehicle: Klucel (hydroxypropylcellulose) (HPC) 112 % of control | dose: 21.0 mg/kg/injection, schedule: Q01DX005 (ip), vehicle: Klucel (hydroxypropylcellulose) (HPC) 102 % of control | dose: 42.0 mg/kg/injection, schedule: Q01DX005 (ip), vehicle: Klucel (hydroxypropylcellulose) (HPC) 105 % of control | dose: 84.0 mg/kg/injection, schedule: Q01DX005 (ip), vehicle: Klucel (hydroxypropylcellulose) (HPC) 102 % of control

Cc1cc(Nc2ccc3c(c2)OCO3)c2cc(C3CCCCC3)ccc2n1
inactive: [1] 95 % of control | [2] 91 % of control

O=C1OC(O)C(Cl)=C1Cl (centres undefined)
inactive: dose: 0.79 mg/kg/injection, schedule: Q01DX005 (ip), vehicle: saline with Tween-80 111 % of control | dose: 1.56 mg/kg/injection, schedule: Q01DX005 (ip), vehicle: saline with Tween-80 112 % of control | dose: 3.12 mg/kg/injection, schedule: Q01DX005 (ip), vehicle: saline with Tween-80 114 % of control | dose: 6.25 mg/kg/injection, schedule: Q01DX005 (ip), vehicle: saline with Tween-80 120 % of control

Source: PubChem BioAssay AID330 (DTP/NCI, 2004)
